Test results published in patent US8658604B2, “Template-fixed beta-hairpin peptidomimetics with protease inhibitory activity” (Polyphor Ltd, priority 2005, dated 2014).
Where a SMILES comes first, the peptide text is derived from it.

Tests used:
[1] = biological target: T1, Elastase from human neutrophils (Homo sapiens, UniProt P08246); assay: Enzymatic assay, elastase; settings: Elastase IC50
T1 sequence (P08246 30-267): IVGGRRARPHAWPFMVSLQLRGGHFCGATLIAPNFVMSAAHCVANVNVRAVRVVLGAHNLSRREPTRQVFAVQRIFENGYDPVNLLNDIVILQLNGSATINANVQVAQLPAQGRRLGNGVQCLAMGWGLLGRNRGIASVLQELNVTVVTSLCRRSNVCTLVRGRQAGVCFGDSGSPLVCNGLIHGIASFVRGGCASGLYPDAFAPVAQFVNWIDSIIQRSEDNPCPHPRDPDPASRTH

[2] = biological target: Chymotrypsin, from human pancreas (Homo sapiens, UniProt P17538); assay: Enzymatic assay, chymotrypsin
[3] = biological target: Trypsin, from human pancreas (Homo sapiens, UniProt P07477); assay: Enzymatic assay, trypsin
[4] = biological target: T2, CathepsinG, from human neutrophils (Homo sapiens, UniProt P08311); assay: Enzymatic assay, cathepsin G; settings: Cathepsin G IC50
T2 sequence (P08311 21-244): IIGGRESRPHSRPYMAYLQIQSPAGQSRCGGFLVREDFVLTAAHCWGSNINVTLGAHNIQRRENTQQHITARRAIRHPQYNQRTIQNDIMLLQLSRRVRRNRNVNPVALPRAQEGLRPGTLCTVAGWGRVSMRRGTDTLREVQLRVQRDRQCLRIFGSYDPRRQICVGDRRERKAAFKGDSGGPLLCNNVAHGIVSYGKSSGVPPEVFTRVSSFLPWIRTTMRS

[5] = tested on: Tryptase, from human lung; assay: Enzymatic assay, tryptase; settings: for IC50: read-out: Tryptase IC50

Sequence of Chymotrypsin, from human pancreas (P17538 19-263): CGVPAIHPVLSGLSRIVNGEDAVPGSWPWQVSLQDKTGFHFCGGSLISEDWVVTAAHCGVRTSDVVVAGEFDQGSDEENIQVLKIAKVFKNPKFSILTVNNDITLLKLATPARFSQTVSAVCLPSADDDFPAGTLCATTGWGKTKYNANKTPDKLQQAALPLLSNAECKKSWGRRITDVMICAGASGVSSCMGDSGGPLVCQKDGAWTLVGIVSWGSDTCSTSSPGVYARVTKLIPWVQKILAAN

SMILES	IC50 [1]	Chymotrypsin at 100 μM % [2]	Trypsin at 100 μM % [3]	IC50 [4]	Tryptase At 100 μM % [5]	IC50 [2]	IC50 [3]	IC50 [5]
CC[C@H](C)[C@@H]1NC(=O)[C@@H]2CCCN2C(=O)[C@@H]2CCCN2C(=O)[C@H](CC(=O)O)NC(=O)[C@H](CO)NC(=O)[C@H](CCCCN)NC(=O)[C@H]([C@@H](C)O)NC(=O)[C@@H]2CSSC[C@H](NC1=O)C(=O)N[C@@H](CO)C(=O)N1CCC[C@@H]1C(=O)N1[C@@H](c3ccccc3)CC[C@H]1C(=O)N[C@@H](Cc1ccccc1)C(=O)N2 [Ex. 48] (HELM PEPTIDE1{C.S.[dP].[O=C([C@@H]1CC[C@H](c2ccccc2)N1[*:1])[*:2]].F.C.T.K.S.D.P.P.I}$PEPTIDE1,PEPTIDE1,1:R3-6:R3|PEPTIDE1,PEPTIDE1,1:R1-13:R2$$$V2.0)	> 100000 nM	3%	93%	83 nM				
CC[C@@H](C)[C@H]1NC(=O)[C@H](CO)NC(=O)[C@@H]2CSSC[C@H](NC(=O)[C@H](Cc3ccccc3)NC(=O)[C@@H]3CCCN3C1=O)C(=O)N[C@@H]([C@@H](C)O)C(=O)N[C@@H](CCCCN)C(=O)N[C@@H](CO)C(=O)N[C@@H](CC(=O)O)C(=O)N1CCC[C@H]1C(=O)N1CCC[C@H]1C(=O)N[C@@H]([C@@H](C)CC)C(=O)N2 [Ex. 50] (HELM PEPTIDE1{F.C.T.K.S.D.P.P.I.C.S.[dI].P}$PEPTIDE1,PEPTIDE1,2:R3-10:R3|PEPTIDE1,PEPTIDE1,1:R1-13:R2$$$V2.0)	> 100000 nM	0%	94%	89 nM				
CCCC[C@@H]1NC(=O)[C@@H]2CCCN2C(=O)[C@H]2CCCN2C(=O)[C@H](Cc2ccc(O)cc2)NC(=O)[C@@H]2CSSC[C@H](NC1=O)C(=O)N[C@@H]([C@@H](C)O)C(=O)N[C@@H](C)C(=O)N[C@@H](CO)C(=O)N[C@@H](C1CCCCC1)C(=O)N1CCC[C@H]1C(=O)N1CCC[C@H]1C(=O)N[C@@H](CCC(N)=O)C(=O)N2 [Ex. 140] (HELM PEPTIDE1{[Nle].C.T.A.S.[O=C([C@@H](N[*:1])C1CCCCC1)[*:2]].P.P.Q.C.Y.[dP].P}$PEPTIDE1,PEPTIDE1,2:R3-10:R3|PEPTIDE1,PEPTIDE1,1:R1-13:R2$$$V2.0)		79.6%			4.2%			
CCCC[C@@H]1NC(=O)[C@H](Cc2ccccc2)NC(=O)[C@H]2CCCN2C(=O)[C@H](Cc2ccc(O)cc2)NC(=O)[C@@H]2CSSC[C@H](NC1=O)C(=O)N[C@@H]([C@@H](C)O)C(=O)N[C@@H](C)C(=O)N[C@@H](CO)C(=O)N[C@@H]([C@@H](C)CC)C(=O)N1CCC[C@H]1C(=O)N1CCC[C@H]1C(=O)N[C@@H](CCC(N)=O)C(=O)N2 [compound 167] (HELM PEPTIDE1{[Nle].C.T.A.S.I.P.P.Q.C.Y.[dP].F}$PEPTIDE1,PEPTIDE1,2:R3-10:R3|PEPTIDE1,PEPTIDE1,1:R1-13:R2$$$V2.0)		60.2%			0.2%			
CCCC[C@@H]1NC(=O)[C@@H]2CCCN2C(=O)[C@@H](Cc2ccccc2)NC(=O)[C@H](Cc2ccc(O)cc2)NC(=O)[C@@H]2CSSC[C@H](NC1=O)C(=O)N[C@@H]([C@@H](C)O)C(=O)N[C@@H](C)C(=O)N[C@@H](CO)C(=O)N[C@@H]([C@@H](C)CC)C(=O)N1CCC[C@H]1C(=O)N1CCC[C@H]1C(=O)N[C@@H](CCC(N)=O)C(=O)N2 [Ex. 116] (HELM PEPTIDE1{A.S.I.P.P.Q.C.Y.[dF].P.[Nle].C.T}$PEPTIDE1,PEPTIDE1,7:R3-12:R3|PEPTIDE1,PEPTIDE1,1:R1-13:R2$$$V2.0)	46 nM		0%			39700 nM		
CC[C@H](C)[C@@H]1NC(=O)[C@@H]2CCCN2C(=O)[C@@H]2CCCN2C(=O)[C@H](CC(C)C)NC(=O)[C@H](CO)NC(=O)[C@H](CCCCN)NC(=O)[C@H]([C@@H](C)O)NC(=O)[C@@H]2CSSC[C@H](NC1=O)C(=O)N[C@@H](CCCNC(=N)N)C(=O)N1CCC[C@@H]1C(=O)N1CCC[C@H]1C(=O)N[C@@H](Cc1ccccc1)C(=O)N2 [Ex. 184] (HELM PEPTIDE1{F.C.T.K.S.L.P.P.I.C.R.[dP].P}$PEPTIDE1,PEPTIDE1,2:R3-10:R3|PEPTIDE1,PEPTIDE1,1:R1-13:R2$$$V2.0)				221 nM			48 nM	27 nM
CC[C@H](C)[C@@H]1NC(=O)[C@@H]2CCCN2C(=O)[C@H]2CCCN2C(=O)[C@H](CCCNC(=N)N)NC(=O)[C@@H]2CSSC[C@H](NC1=O)C(=O)N[C@@H]([C@@H](C)O)C(=O)N[C@@H](CCCCN)C(=O)N[C@@H](CO)C(=O)N[C@@H](CCc1ccccc1)C(=O)N1CCC[C@H]1C(=O)N1CCC[C@H]1C(=O)N[C@@H]([C@@H](C)CC)C(=O)N2 [Ex. 181] (HELM PEPTIDE1{I.C.T.K.S.[O=C([C@H](CCc1ccccc1)N[*:1])[*:2]].P.P.I.C.R.[dP].P}$PEPTIDE1,PEPTIDE1,2:R3-10:R3|PEPTIDE1,PEPTIDE1,1:R1-13:R2$$$V2.0)				127 nM			113 nM	40 nM
CC[C@H](C)[C@@H]1NC(=O)[C@@H]2CCCN2C(=O)[C@H]2CCCN2C(=O)[C@H](CCCNC(=N)N)NC(=O)[C@@H]2CSSC[C@H](NC1=O)C(=O)N[C@@H]([C@@H](C)O)C(=O)N[C@@H](CCCCN)C(=O)N[C@@H](CO)C(=O)N[C@@H](CC(C)C)C(=O)N1CCC[C@H]1C(=O)N1CCC[C@H]1C(=O)N[C@@H]([C@@H](C)O)C(=O)N2 [Ex. 189] (HELM PEPTIDE1{I.C.T.K.S.L.P.P.T.C.R.[dP].P}$PEPTIDE1,PEPTIDE1,2:R3-10:R3|PEPTIDE1,PEPTIDE1,1:R1-13:R2$$$V2.0)				164 nM			39 nM	< 100 nM
CC[C@H](C)[C@@H]1NC(=O)[C@@H]2CCCN2C(=O)[C@H]2CCCN2C(=O)[C@H](CCCNC(=N)N)NC(=O)[C@@H]2CSSC[C@H](NC1=O)C(=O)N[C@@H]([C@@H](C)O)C(=O)N[C@@H](CCCCN)C(=O)N[C@@H](CO)C(=O)N[C@@H](CC(C)C)C(=O)N1CCC[C@H]1C(=O)N1CCC[C@H]1C(=O)N[C@@H](CCCCN)C(=O)N2 [Ex. 186] (HELM PEPTIDE1{I.C.T.K.S.L.P.P.K.C.R.[dP].P}$PEPTIDE1,PEPTIDE1,2:R3-10:R3|PEPTIDE1,PEPTIDE1,1:R1-13:R2$$$V2.0)				337 nM			99 nM	15 nM
CC(C)C[C@@H]1NC(=O)[C@H](CO)NC(=O)[C@H](CCCCN)NC(=O)[C@H]([C@@H](C)O)NC(=O)[C@@H]2CSSC[C@H](NC(=O)[C@H](CCCCN)NC(=O)[C@@H]3CCCN3C(=O)[C@@H]3CCCN3C1=O)C(=O)N[C@@H](CCCNC(=N)N)C(=O)N1CCC[C@@H]1C(=O)N1CCC[C@H]1C(=O)N[C@@H](CC1CCCCC1)C(=O)N2 [Ex. 193] (HELM PEPTIDE1{[Cha].C.T.K.S.L.P.P.K.C.R.[dP].P}$PEPTIDE1,PEPTIDE1,2:R3-10:R3|PEPTIDE1,PEPTIDE1,1:R1-13:R2$$$V2.0)				431 nM			35 nM	6 nM
CCCC[C@@H]1NC(=O)[C@H](CC(=O)O)NC(=O)[C@H]2CCCN2C(=O)[C@H](Cc2ccc(O)cc2)NC(=O)[C@@H]2CSSC[C@H](NC1=O)C(=O)N[C@@H]([C@@H](C)O)C(=O)N[C@@H](C)C(=O)N[C@@H](CO)C(=O)N[C@@H]([C@@H](C)CC)C(=O)N1CCC[C@H]1C(=O)N1CCC[C@H]1C(=O)N[C@@H](CCC(N)=O)C(=O)N2 [Ex. 168] (HELM PEPTIDE1{[Nle].C.T.A.S.I.P.P.Q.C.Y.[dP].D}$PEPTIDE1,PEPTIDE1,2:R3-10:R3|PEPTIDE1,PEPTIDE1,1:R1-13:R2$$$V2.0)		72.9%			4.6%			
CC(C)C[C@@H]1NC(=O)[C@@H]2CCCN2C(=O)[C@H]2CCCN2C(=O)[C@H](CCCNC(=N)N)NC(=O)[C@@H]2CSSC[C@H](NC1=O)C(=O)N[C@@H]([C@@H](C)O)C(=O)N[C@@H](CCCCN)C(=O)N[C@@H](CO)C(=O)N[C@@H](CC(C)C)C(=O)N1CCC[C@H]1C(=O)N1CCC[C@H]1C(=O)N[C@@H](CCCCN)C(=O)N2 [Ex. 191] (HELM PEPTIDE1{L.C.T.K.S.L.P.P.K.C.R.[dP].P}$PEPTIDE1,PEPTIDE1,2:R3-10:R3|PEPTIDE1,PEPTIDE1,1:R1-13:R2$$$V2.0)				400 nM			66 nM	21 nM
CC[C@H](C)[C@@H]1NC(=O)[C@@H]2CCCN2C(=O)[C@H]2CCCN2C(=O)[C@H](CCCNC(=N)N)NC(=O)[C@@H]2CSSC[C@H](NC1=O)C(=O)N[C@@H]([C@@H](C)O)C(=O)N[C@@H](CCCCN)C(=O)N[C@@H](CO)C(=O)N[C@@H](CC1CCCCC1)C(=O)N1CCC[C@H]1C(=O)N1CCC[C@H]1C(=O)N[C@@H]([C@@H](C)CC)C(=O)N2 [Ex. 182] (HELM PEPTIDE1{I.C.T.K.S.[Cha].P.P.I.C.R.[dP].P}$PEPTIDE1,PEPTIDE1,2:R3-10:R3|PEPTIDE1,PEPTIDE1,1:R1-13:R2$$$V2.0)				111 nM			59 nM	39 nM
CC(C)C[C@@H]1NC(=O)[C@H](CO)NC(=O)[C@H](CCCCN)NC(=O)[C@H]([C@@H](C)O)NC(=O)[C@@H]2CSSC[C@H](NC(=O)[C@H](CCCCN)NC(=O)[C@@H]3CCCN3C(=O)[C@@H]3CCCN3C1=O)C(=O)N[C@@H](CCCNC(=N)N)C(=O)N1CCC[C@@H]1C(=O)N1CCC[C@H]1C(=O)N[C@@H](Cc1c[nH]c3ccccc13)C(=O)N2 [Ex. 195] (HELM PEPTIDE1{W.C.T.K.S.L.P.P.K.C.R.[dP].P}$PEPTIDE1,PEPTIDE1,2:R3-10:R3|PEPTIDE1,PEPTIDE1,1:R1-13:R2$$$V2.0)				4000 nM			108 nM	12 nM
